Assays:
Type in all cases: cell-based
Conditions in all cases: compounds at 50 nM and 500 nM
[1] = target: T1, WEE1 (Homo sapiens, UniProt P30291+Q96SW2); test: Western blot degradation of WEE1 in hPBMCs (24 h)
T1 construct: The supernatant was aspirated as the extracted total cell protein; endogenous in cells; host or cells: human peripheral blood mononuclear cells (hPBMCs)
Outline: (§1)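 In this assay, each compound was incubated with human PBMCs for 24 h at 50 nM and 500 nM. Target levels were measured by Western blot densitometry normalised to an internal control.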

[2] = target: T2, IKZF1 (Homo sapiens, UniProt Q13422+Q96SW2); test: Western blot degradation of IKZF1 in hPBMCs (24 h)
T2 construct: The supernatant was aspirated as the extracted total cell protein; endogenous in cells; host or cells: human peripheral blood mononuclear cells (hPBMCs)
Outline: as §1

[3] = target: T3, IKZF2 (Homo sapiens, UniProt Q96SW2+Q9UKS7); test: Western blot degradation of IKZF2 in hPBMCs (24 h)
T3 construct: The supernatant was aspirated as the extracted total cell protein; endogenous in cells; host or cells: human peripheral blood mononuclear cells (hPBMCs)
Outline: as §1

[4] = target: T4, IKZF3 (Homo sapiens, UniProt Q96SW2+Q9UKT9); test: Western blot degradation of IKZF3 in hPBMCs (24 h)
T4 construct: The supernatant was aspirated as the extracted total cell protein; endogenous in cells; host or cells: human peripheral blood mononuclear cells (hPBMCs)
Outline: as §1

[5] = target: T5, CK1α (Homo sapiens, UniProt P48729+Q96SW2); test: Western blot degradation of CK1α in hPBMCs (24 h)
T5 construct: The supernatant was aspirated as the extracted total cell protein; endogenous in cells; host or cells: human peripheral blood mononuclear cells (hPBMCs)
Outline: as §1

[6] = target: T6, GSPT1 (Homo sapiens, UniProt P15170+Q96SW2); test: Western blot degradation of GSPT1 in hPBMCs (24 h)
T6 construct: The supernatant was aspirated as the extracted total cell protein; endogenous in cells; host or cells: human peripheral blood mononuclear cells (hPBMCs)
Outline: as §1

T3 sequence (Q9UKS7 whole entry): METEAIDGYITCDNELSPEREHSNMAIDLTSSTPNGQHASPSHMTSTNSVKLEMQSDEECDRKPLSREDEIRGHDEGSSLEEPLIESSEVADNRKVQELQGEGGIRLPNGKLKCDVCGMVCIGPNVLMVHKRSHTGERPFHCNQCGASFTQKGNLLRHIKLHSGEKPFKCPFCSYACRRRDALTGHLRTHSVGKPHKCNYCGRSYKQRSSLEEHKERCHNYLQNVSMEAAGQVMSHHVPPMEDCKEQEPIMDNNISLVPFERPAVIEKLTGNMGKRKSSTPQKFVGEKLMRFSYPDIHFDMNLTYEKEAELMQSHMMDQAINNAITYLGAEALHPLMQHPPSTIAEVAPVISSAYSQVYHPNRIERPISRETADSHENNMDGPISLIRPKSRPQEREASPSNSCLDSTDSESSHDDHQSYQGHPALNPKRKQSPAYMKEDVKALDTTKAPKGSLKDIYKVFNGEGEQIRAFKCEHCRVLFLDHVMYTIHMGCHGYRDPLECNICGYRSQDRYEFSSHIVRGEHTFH
T3 sequence (Q96SW2 whole entry): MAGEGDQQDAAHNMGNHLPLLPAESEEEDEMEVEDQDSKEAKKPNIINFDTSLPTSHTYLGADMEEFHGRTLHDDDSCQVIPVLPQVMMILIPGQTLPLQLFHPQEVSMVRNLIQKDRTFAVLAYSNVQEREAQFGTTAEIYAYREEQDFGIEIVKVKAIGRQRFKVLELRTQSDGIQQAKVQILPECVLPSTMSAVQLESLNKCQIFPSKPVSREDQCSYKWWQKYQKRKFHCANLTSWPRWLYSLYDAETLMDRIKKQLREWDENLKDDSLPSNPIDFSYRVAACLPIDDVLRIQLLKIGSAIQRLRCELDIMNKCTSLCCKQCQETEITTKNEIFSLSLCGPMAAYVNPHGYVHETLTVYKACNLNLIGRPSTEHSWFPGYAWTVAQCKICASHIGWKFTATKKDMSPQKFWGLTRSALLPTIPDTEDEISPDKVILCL
T3 sequence (Q16531 whole entry partner): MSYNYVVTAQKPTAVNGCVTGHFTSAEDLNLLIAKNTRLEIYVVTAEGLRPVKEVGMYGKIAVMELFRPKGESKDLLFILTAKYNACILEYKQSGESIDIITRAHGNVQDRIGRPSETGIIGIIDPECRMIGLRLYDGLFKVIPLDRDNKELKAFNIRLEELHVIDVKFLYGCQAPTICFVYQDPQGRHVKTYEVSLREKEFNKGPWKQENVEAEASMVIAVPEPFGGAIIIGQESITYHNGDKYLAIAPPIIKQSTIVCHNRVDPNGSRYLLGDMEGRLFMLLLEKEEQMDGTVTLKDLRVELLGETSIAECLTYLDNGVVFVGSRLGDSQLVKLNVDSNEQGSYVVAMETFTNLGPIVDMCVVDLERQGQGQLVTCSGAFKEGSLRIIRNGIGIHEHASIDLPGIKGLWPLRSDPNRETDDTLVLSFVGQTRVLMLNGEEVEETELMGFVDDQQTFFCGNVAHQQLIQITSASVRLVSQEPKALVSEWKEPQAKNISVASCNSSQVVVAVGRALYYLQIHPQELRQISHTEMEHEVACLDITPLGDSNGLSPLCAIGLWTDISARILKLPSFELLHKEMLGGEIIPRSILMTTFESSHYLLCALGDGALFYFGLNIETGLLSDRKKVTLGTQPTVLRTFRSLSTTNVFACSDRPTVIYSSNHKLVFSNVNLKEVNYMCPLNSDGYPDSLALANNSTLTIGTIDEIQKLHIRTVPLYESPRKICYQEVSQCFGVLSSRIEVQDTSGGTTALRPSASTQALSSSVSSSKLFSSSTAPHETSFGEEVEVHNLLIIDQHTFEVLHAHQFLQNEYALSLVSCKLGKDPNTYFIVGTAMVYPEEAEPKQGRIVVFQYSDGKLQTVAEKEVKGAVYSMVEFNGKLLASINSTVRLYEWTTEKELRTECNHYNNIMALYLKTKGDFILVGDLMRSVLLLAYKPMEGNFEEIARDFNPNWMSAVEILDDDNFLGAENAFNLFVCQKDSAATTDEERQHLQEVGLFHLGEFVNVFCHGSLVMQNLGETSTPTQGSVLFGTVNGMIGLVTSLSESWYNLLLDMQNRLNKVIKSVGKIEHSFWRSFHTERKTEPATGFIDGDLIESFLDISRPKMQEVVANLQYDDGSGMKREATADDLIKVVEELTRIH
T1 sequence (P30291 whole entry): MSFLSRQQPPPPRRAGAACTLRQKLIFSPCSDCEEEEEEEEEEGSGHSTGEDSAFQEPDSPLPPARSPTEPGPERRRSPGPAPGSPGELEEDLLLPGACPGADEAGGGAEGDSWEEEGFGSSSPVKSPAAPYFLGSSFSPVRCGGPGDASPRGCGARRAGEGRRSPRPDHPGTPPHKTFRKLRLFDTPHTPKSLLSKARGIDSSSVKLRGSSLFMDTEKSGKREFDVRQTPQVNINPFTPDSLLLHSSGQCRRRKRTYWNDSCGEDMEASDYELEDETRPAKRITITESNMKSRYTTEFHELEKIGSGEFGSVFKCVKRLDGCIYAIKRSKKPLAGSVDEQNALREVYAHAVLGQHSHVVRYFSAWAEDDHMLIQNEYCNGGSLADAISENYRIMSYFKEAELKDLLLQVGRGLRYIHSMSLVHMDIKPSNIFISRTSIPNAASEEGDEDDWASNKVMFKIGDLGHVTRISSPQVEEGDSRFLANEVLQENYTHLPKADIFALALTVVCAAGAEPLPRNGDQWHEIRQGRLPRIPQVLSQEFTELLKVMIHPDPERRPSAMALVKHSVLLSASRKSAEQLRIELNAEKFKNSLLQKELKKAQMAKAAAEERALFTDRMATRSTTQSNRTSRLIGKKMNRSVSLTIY
T1 sequence (Q96SW2 whole entry): as the sequence (Q96SW2 whole entry) above
T1 sequence (Q16531 whole entry partner): as the sequence (Q16531 whole entry partner) above
T5 sequence (P48729 whole entry): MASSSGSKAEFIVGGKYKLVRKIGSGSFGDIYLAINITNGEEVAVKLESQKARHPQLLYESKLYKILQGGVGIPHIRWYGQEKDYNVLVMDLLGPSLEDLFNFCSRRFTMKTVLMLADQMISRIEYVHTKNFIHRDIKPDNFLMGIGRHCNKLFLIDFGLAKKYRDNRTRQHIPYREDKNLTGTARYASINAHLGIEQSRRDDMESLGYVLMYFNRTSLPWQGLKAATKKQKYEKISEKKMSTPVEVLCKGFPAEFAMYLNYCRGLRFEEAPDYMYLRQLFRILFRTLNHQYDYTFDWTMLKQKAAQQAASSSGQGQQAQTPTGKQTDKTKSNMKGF
T5 sequence (Q96SW2 whole entry): as the sequence (Q96SW2 whole entry) above
T5 sequence (Q16531 whole entry partner): as the sequence (Q16531 whole entry partner) above
T6 sequence (P15170 whole entry): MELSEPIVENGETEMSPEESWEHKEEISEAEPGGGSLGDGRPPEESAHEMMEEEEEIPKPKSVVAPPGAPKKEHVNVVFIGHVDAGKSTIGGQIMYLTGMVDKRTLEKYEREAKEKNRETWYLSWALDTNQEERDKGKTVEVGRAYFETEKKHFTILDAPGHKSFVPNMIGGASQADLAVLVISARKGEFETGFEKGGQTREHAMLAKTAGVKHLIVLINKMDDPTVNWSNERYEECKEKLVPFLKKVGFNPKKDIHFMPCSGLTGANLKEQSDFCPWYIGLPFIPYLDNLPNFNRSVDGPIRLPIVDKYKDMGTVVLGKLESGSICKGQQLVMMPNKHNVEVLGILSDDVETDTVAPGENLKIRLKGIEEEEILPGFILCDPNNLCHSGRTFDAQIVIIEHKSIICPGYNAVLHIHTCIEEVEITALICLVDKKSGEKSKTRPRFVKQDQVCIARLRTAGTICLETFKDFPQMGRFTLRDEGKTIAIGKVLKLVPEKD
T6 sequence (Q96SW2 whole entry): as the sequence (Q96SW2 whole entry) above
T6 sequence (Q16531 whole entry partner): as the sequence (Q16531 whole entry partner) above
T2 sequence (Q13422 whole entry): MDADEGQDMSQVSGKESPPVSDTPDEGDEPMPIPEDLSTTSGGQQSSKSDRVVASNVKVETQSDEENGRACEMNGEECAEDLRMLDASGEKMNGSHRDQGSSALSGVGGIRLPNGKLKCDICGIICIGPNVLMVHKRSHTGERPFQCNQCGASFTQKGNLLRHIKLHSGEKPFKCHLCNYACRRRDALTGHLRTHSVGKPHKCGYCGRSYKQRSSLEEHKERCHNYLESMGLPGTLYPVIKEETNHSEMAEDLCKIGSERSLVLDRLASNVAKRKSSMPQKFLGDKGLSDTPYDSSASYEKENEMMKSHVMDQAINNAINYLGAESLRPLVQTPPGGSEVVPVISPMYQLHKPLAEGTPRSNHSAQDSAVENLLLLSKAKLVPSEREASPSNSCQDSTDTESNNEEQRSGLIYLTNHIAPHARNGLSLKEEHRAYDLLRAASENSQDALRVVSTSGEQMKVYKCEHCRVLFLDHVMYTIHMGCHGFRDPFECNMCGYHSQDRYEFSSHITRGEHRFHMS
T2 sequence (Q96SW2 whole entry): as the sequence (Q96SW2 whole entry) above
T2 sequence (Q16531 whole entry partner): as the sequence (Q16531 whole entry partner) above

Structure (SMILES) | WEE1 substrate protein remaining % [1] | IKZF1 substrate protein remaining % [2] | IKZF2 substrate protein remaining % [3] | IKZF3 substrate protein remaining % [4] | CK1α substrate protein remaining % [5] | GSPT1 substrate protein remaining % [6]
O=C1CCN(N2C(=O)c3ccc(CN4CCC(c5cccc(C(F)(F)F)c5)CC4)cc3C2=O)C(=O)N1 [GT-06880, 2-(2,4-dioxotetrahydropyrimidin-1(2H)-yl)-5-((4-(3-(trifluoromethyl)phenyl)piperidin-1-yl)methyl)isoindoline-1,3-dione] | A (0% ≤ substrate protein remaining % ≤80%) | B (80%< substrate protein remaining % ≤100%) | B (80%< substrate protein remaining % ≤100%) | B (80%< substrate protein remaining % ≤100%) | B (80%< substrate protein remaining % ≤100%) | B (80%< substrate protein remaining % ≤100%)
Cc1ccc(N2CCN(Cc3ccc4c(c3)CN(N3CCC(=O)NC3=O)C4=O)CC2)c(C)c1 [GT-06882, 1-(5-((4-(2,4-dimethylphenyl)piperazin-1-yl)methyl)-1-oxoisoindolin-2-yl)dihydropyrimidine-2,4(1H,3H)-dione] | A (0% ≤ substrate protein remaining % ≤80%) | A (0% ≤ substrate protein remaining % ≤80%) | B (80%< substrate protein remaining % ≤100%) | B (80%< substrate protein remaining % ≤100%) | B (80%< substrate protein remaining % ≤100%) | A (0% ≤ substrate protein remaining % ≤80%)
Cc1ccc(Cl)cc1N1CCN(Cc2ccc3c(c2)CN(N2CCC(=O)NC2=O)C3=O)CC1 [GT-06883, 1-(5-((4-(5-chloro-2-methylphenyl)piperazin-1-yl)methyl)-1-oxoisoindolin-2-yl)dihydropyrimidine-2,4(1H,3H)-dione] | A (0% ≤ substrate protein remaining % ≤80%) | A (0% ≤ substrate protein remaining % ≤80%) | B (80%< substrate protein remaining % ≤100%) | B (80%< substrate protein remaining % ≤100%) | B (80%< substrate protein remaining % ≤100%) | A (0% ≤ substrate protein remaining % ≤80%)
O=C1CCN(N2Cc3cc(CN4CCC(c5ccc(Br)cc5)CC4)ccc3C2=O)C(=O)N1 [GT-06886, 1-(5-((4-(4-bromophenyl)piperidin-1-yl)methyl)-1-oxoisoindolin-2-yl)dihydropyrimidine-2,4(1H,3H)-dione] | B (80%< substrate protein remaining % ≤100%) | B (80%< substrate protein remaining % ≤100%) | A (0% ≤ substrate protein remaining % ≤80%) | B (80%< substrate protein remaining % ≤100%) | B (80%< substrate protein remaining % ≤100%) | A (0% ≤ substrate protein remaining % ≤80%)
O=C1CCN(N2Cc3cc(CN4CCC(c5ccccc5Cl)CC4)ccc3C2=O)C(=O)N1 [GT-06887, 1-(5-((4-(2-chlorophenyl)piperidin-1-yl)methyl)-1-oxoisoindolin-2-yl)dihydropyrimidine-2,4(1H,3H)-dione] | A (0% ≤ substrate protein remaining % ≤80%) | B (80%< substrate protein remaining % ≤100%) | A (0% ≤ substrate protein remaining % ≤80%) | B (80%< substrate protein remaining % ≤100%) | B (80%< substrate protein remaining % ≤100%) | A (0% ≤ substrate protein remaining % ≤80%)
